Drawing on patent publication US10758534B2 (Vertex Pharmaceuticals Incorporated, priority 2014, dated 2020), this text covers EC30 for 28 molecules.

One assay deals with T1, F508del (Homo sapiens, UniProt P13569, DEL508-508).
T1 construct: expressed in transfected cells
T1 sequence (P13569 with tags, fused parts or gaps DEL508-508): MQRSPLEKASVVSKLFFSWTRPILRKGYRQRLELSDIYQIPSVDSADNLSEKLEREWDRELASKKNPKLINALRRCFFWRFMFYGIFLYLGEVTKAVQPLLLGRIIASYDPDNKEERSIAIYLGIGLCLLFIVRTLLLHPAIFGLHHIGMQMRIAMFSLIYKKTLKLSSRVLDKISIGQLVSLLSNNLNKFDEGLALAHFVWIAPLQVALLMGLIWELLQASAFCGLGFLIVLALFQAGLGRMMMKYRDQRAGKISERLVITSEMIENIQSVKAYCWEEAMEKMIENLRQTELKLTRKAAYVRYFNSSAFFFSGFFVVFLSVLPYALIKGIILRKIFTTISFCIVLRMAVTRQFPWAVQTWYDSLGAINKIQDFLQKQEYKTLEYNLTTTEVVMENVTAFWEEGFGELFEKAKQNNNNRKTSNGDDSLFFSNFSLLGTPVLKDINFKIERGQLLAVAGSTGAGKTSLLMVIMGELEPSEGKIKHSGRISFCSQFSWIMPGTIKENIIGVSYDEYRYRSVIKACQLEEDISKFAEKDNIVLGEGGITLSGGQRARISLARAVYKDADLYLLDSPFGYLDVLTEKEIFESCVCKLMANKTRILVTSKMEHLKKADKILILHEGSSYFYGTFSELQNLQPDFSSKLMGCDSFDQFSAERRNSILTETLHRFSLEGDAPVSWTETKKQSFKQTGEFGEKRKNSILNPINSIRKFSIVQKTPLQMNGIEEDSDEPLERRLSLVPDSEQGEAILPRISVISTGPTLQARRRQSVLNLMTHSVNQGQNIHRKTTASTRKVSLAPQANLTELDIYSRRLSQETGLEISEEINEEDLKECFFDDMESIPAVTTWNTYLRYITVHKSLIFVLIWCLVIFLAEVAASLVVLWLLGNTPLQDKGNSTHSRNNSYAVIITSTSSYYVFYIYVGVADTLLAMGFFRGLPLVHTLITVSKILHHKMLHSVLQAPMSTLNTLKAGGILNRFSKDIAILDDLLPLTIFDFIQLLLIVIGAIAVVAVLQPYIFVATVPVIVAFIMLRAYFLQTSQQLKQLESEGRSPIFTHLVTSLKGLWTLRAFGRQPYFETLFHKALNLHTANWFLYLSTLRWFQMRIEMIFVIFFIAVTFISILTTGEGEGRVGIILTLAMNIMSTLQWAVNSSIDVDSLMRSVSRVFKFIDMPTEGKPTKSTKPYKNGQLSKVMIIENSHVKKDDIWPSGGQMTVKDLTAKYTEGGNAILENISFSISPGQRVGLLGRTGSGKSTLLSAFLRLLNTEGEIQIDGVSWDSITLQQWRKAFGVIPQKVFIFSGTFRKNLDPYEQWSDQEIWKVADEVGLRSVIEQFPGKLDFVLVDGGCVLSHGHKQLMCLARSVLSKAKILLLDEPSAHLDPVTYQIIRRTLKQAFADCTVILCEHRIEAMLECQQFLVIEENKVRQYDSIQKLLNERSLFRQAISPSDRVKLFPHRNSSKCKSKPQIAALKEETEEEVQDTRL
The experiment in a line: Protocol 2: FRET membrane potential optical assay (VIPR), identification of correction compounds. Particulars: F508del CFTR modulator activity; compounds of Table 1; read-out: EC30. It counts as cell-based. The method, boiled down: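 NIH3T3 mouse fibroblasts stably expressing F508del-CFTR incubated with compound 16 h at 37 °C in serum-free medium, then loaded with CC2-DMPE/DiSBAC2(3) FRET dyes. Channel activated with 10 μM forskolin plus 20 μM genistein in Cl⁻-free (gluconate) bath; depolarisation from Cl⁻ efflux read on VIPR II.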
For `COc1ccccc1CN(C)c1cccc(S(=O)(=O)NC(=O)c2cccnc2N2CC(C)CC2(C)C)n1` (stereo not shown) [Compound 2090, N—[[6-[(2-methoxyphenyl)methyl-methyl-amino]-2-pyridyl]sulfonyl]-2-(2,2,4-trimethylpyrrolidin-1-yl)pyridine-3-carboxamide], the concentration for an effect of 30% (EC30) (in general, the concentration at which the effect reaches the 30% level) was < 3 µM.
Same read-out and setting: the figure for `Cc1cc(I)cc(C)c1Oc1nc(-c2cc(F)cc(OCC(C)C)c2)ccc1C(=O)NS(=O)(=O)c1cccc(N)n1` [Compound 2671, N-[(6-amino-2-pyridyl)sulfonyl]-6-(3-fluoro-5-isobutoxy-phenyl)-2-(4-iodo-2,6-dimethyl-phenoxy)pyridine-3-carboxamide] is < 3 µM; for `CC1CN(c2ncccc2C(=O)NS(=O)(=O)c2cccc(OC3CCCC(C)(C)C3)n2)C(C)(C)C1` (stereo not shown) [Compound 2038, N—[[6-(3,3-dimethylcyclohexoxy)-2-pyridyl]sulfonyl]-2-(2,2,4-trimethylpyrrolidin-1-yl)pyridine-3-carboxamide] it is < 3 µM; for `CC1CN(c2ncccc2C(=O)NS(=O)(=O)c2cccc(OCc3ccccc3)n2)C(C)(C)C1` (stereo not shown) [Compound 2619, N-[(6-benzyloxy-2-pyridyl)sulfonyl]-2-(2,2,4-trimethylpyrrolidin-1-yl)pyridine-3-carboxamide] it is < 3 µM.
Take `CC(C)Oc1cnn(-c2ccc(C(=O)NS(=O)(=O)c3cccc(N)n3)c(N3C[C@@H](C)CC3(C)C)n2)c1` [Compound 2658, N-[(6-amino-2-pyridyl)sulfonyl]-6-(4-isopropoxypyrazol-1-yl)-2-[(4S)-2,2,4-trimethylpyrrolidin-1-yl]pyridine-3-carboxamide]: the 30% effect concentration (EC30) is 3 to 10 µM.
Still for that read-out and setting: the figure for `C[C@@H]1CN(c2nc(-c3ccccc3Cl)ccc2C(=O)NS(=O)(=O)c2cccnc2N)C(C)(C)C1` [Compound 2066, N-[(2-amino-3-pyridyl)sulfonyl]-6-(2-chlorophenyl)-2-[(4S)-2,2,4-trimethylpyrrolidin-1-yl]pyridine-3-carboxamide] is < 3 µM.
As for `C[C@@H]1CN(c2nc(-c3ccccc3F)ccc2C(=O)NS(=O)(=O)c2ccc[nH]c2=O)C(C)(C)C1` [Compound 2542, 6-(2-fluorophenyl)-N-[(2-oxo-1H-pyridin-3-yl)sulfonyl]-2-[(4S)-2,2,4-trimethylpyrrolidin-1-yl]pyridine-3-carboxamide], the EC30 is < 3 µM.
As for `C[C@@H]1CN(c2nc(-c3cc(F)cc(F)c3)ccc2C(=O)NS(=O)(=O)c2cccc(N)n2)C(C)(C)C1` [Compound 2236, N-[(6-amino-2-pyridyl)sulfonyl]-6-(3,5-difluorophenyl)-2-[(4S)-2,2,4-trimethylpyrrolidin-1-yl]pyridine-3-carboxamide], the EC30 was < 3 µM.
Same read-out and setting: the figure for `CCOc1cc(-c2ccc(C(=O)NS(=O)(=O)c3cccc(N)n3)c(N3C[C@@H](C)CC3(C)C)n2)cc(C)n1` [Compound 2364, N-[(6-amino-2-pyridyl)sulfonyl]-6-(2-ethoxy-6-methyl-4-pyridyl)-2-[(4S)-2,2,4-trimethylpyrrolidin-1-yl]pyridine-3-carboxamide] is < 3 µM.

Staying with this assay, now noted: Table 3; compounds of Table 1 as modulators of CFTR activity; protocol not stated.
As to `Cc1cccc(C)c1Cn1nc(-c2ccccc2N(C)C)cc1C(=O)NS(=O)(=O)c1ccccc1` [Compound 128, N-(benzenesulfonyl)-5-[2-(dimethylamino)phenyl]-2-[(2,6-dimethylphenyl)methyl]pyrazole-3-carboxamide], the 30% effect concentration (EC30) result was “+++ (“+++” means <3 uM)”.
Regarding `CC1CN(c2nc(-c3ccnc(OC(C)C)c3)ccc2C(=O)NS(=O)(=O)c2cccc(N)n2)C(C)(C)C1` (stereo not shown) [Compound 402, N-[(6-amino-2-pyridyl)sulfonyl]-6-(2-isopropoxy-4-pyridyl)-2-(2,2,4-trimethylpyrrolidin-1-yl)pyridine-3-carboxamide], the EC30 entry was “+++ (“+++” means <3 uM)”.
On the same count and under the same terms, next, `CC(C)COc1cc(F)cc(-c2ccc(C(=O)NS(=O)(=O)c3cccc(N)n3)c(N3C4CCC3CC4)n2)c1` [Compound 420, N-[(6-amino-2-pyridyl)sulfonyl]-2-(7-azabicyclo[2.2.1]heptan-7-yl)-6-(3-fluoro-5-isobutoxy-phenyl)pyridine-3-carboxamide]: “+++ (“+++” means <3 uM)”.
Turning to `CCOc1ccc(-c2ccc(C(=O)NS(=O)(=O)c3cccc(N)n3)c(Oc3ccc(C)cc3C)n2)cc1` [Compound 641, N-[(6-amino-2-pyridyl)sulfonyl]-2-(2,4-dimethylphenoxy)-6-(4-ethoxyphenyl)pyridine-3-carboxamide], the EC30 entry is “+++ (“+++” means <3 uM)”.
On to `CC(C)COc1cc(F)cc(-c2ccc(C(=O)NS(=O)(=O)c3cccc(N)n3)c(N3C(C)CCC3(C)C)n2)c1` (stereo not shown) [Compound 496, N-[(6-amino-2-pyridyl)sulfonyl]-6-(3-fluoro-5-isobutoxy-phenyl)-2-(2,2,5-trimethylpyrrolidin-1-yl)pyridine-3-carboxamide], for which the 30% effect concentration (EC30) entry was “+++ (“+++” means <3 uM)”.
With `Cc1ccc2c(c1)cc(C(=O)NS(=O)(=O)c1cccc(N)n1)n2Cc1c(C)cc(C#N)cc1C` [Compound 67, N-[(6-amino-2-pyridyl)sulfonyl]-1-[(4-cyano-2,6-dimethyl-phenyl)methyl]-5-methyl-indole-2-carboxamide], the concentration for an effect of 30% (EC30) entry is “++ (“++” means between 3 uM and 10 uM)”.
Consider `COc1cccc(S(=O)(=O)NC(=O)c2ccc(C(C)(C)C)nc2Oc2c(C)cc(C)cc2C)c1` [Compound 56, 6-tert-butyl-N-(3-methoxyphenyl)sulfonyl-2-(2,4,6-trimethylphenoxy)pyridine-3-carboxamide], for which the EC30 result is recorded as “+++ (“+++” means <3 uM)”.
For the molecule `CC(C)CC(C)Oc1cc(-c2ccc(C(=O)NS(=O)(=O)c3cccc(N)n3)c(N3CC(C)CC3(C)C)n2)ccn1` (stereo not shown) [Compound 384, N-[(6-amino-2-pyridyl)sulfonyl]-6-[2-(1,3-dimethylbutoxy)-4-pyridyl]-2-(2,2,4-trimethylpyrrolidin-1-yl)pyridine-3-carboxamide], the concentration for an effect of 30% (EC30) entry was “+++ (“+++” means <3 uM)”.
With `CCOC(=O)Cc1ccc(-c2cc(C(=O)NS(=O)(=O)c3ccccc3)n(Cc3c(C)cccc3C)n2)cc1` [Compound 21, ethyl 2-[4-[5-(benzenesulfonylcarbamoyl)-1-[(2,6-dimethylphenyl)methyl]pyrazol-3-yl]phenyl]acetate], the EC30 entry is listed as “+++ (“+++” means <3 uM)”.
Take `Cc1ccc(-c2ccc(C(=O)NS(=O)(=O)c3ccc[nH]c3=O)c(N3[C@H](C)CC[C@@H]3C)n2)cc1` [Compound 392, 2-[(2R,5S)-2,5-dimethylpyrrolidin-1-yl]-N-[(2-oxo-1H-pyridin-3-yl)sulfonyl]-6-(p-tolyl)pyridine-3-carboxamide]: the EC30 result was “++ (“++” means between 3 uM and 10 uM)”.
In the case of `CC1CCCN(c2nc(-c3ccc(OC(C)C)nc3)ccc2C(=O)NS(=O)(=O)c2cccc(N)n2)C1` (stereo not shown) [Compound 321, N-[(6-amino-2-pyridyl)sulfonyl]-6-(6-isopropoxy-3-pyridyl)-2-(3-methyl-1-piperidyl)pyridine-3-carboxamide], the EC30 entry is given as “+++ (“+++” means <3 uM)”.
Same read-out and setting: the entry for `CC(C)COc1cc(F)cc(-c2ccc(C(=O)NS(=O)(=O)c3ccccc3)c(N3CC(C)CC3(C)C)n2)c1` (stereo not shown) [Compound 620, N-(benzenesulfonyl)-6-(3-fluoro-5-isobutoxy-phenyl)-2-(2,2,4-trimethylpyrrolidin-1-yl)pyridine-3-carboxamide] is “+++ (“+++” means <3 uM)”; for `CC(C)COc1cc(F)cc(-c2ccc(C(=O)NS(=O)(=O)c3ccn[nH]3)c(N3CCC(F)CC3)n2)c1` [Compound 728, 6-(3-fluoro-5-isobutoxy-phenyl)-2-(4-fluoro-1-piperidyl)-N-(1H-pyrazol-5-ylsulfonyl)pyridine-3-carboxamide] it is “++ (“++” means between 3 uM and 10 uM)”.
With `CC(C)COc1cc(F)cc(-c2ccc(C(=O)NS(=O)(=O)c3cccc(N)n3)c(N3CC(C)CC3(C)C)n2)c1` (stereo not shown) [Compound 555, N-[(6-amino-2-pyridyl)sulfonyl]-6-(3-fluoro-5-isobutoxy-phenyl)-2-(2,2,4-trimethylpyrrolidin-1-yl)pyridine-3-carboxamide], the concentration for an effect of 30% (EC30) entry is listed as “+++ (“+++” means <3 uM)”.
The same measure, in the same setting: next, `CC(C)C(C)Oc1cccc(-c2ccc(C(=O)NS(=O)(=O)c3cccc(N)n3)c(N3CCCC3(C)C)n2)n1` (stereo not shown) [Compound 717, N-[(6-amino-2-pyridyl)sulfonyl]-6-[6-(1,2-dimethylpropoxy)-2-pyridyl]-2-(2,2-dimethylpyrrolidin-1-yl)pyridine-3-carboxamide]: “+++ (“+++” means <3 uM)”.
In the case of `CCOc1ccc(-c2ccc(C(=O)NS(=O)(=O)c3cccc(N)n3)c(N3CC(C)CC3(C)C)n2)c(C)c1` (stereo not shown) [Compound 536, N-[(6-amino-2-pyridyl)sulfonyl]-6-(4-ethoxy-2-methyl-phenyl)-2-(2,2,4-trimethylpyrrolidin-1-yl)pyridine-3-carboxamide], the EC30 result was “+++ (“+++” means <3 uM)”.
For the molecule `COCC1CCN(c2nc(-c3ccc(OC(C)C)nc3)ccc2C(=O)NS(=O)(=O)c2cccc(N)n2)CC1` [Compound 606, N-[(6-amino-2-pyridyl)sulfonyl]-6-(6-isopropoxy-3-pyridyl)-2-[4-(methoxymethyl)-1-piperidyl]pyridine-3-carboxamide], the EC30 result is “++ (“++” means between 3 uM and 10 uM)”.
On the same count and under the same terms, next, `CC(C)COc1cc(F)cc(-c2ccc(C(=O)NS(=O)(=O)c3cccc(N)n3)c(N3CCCC(C)C3)n2)c1` (stereo not shown) [Compound 735, N-[(6-amino-2-pyridyl)sulfonyl]-6-(3-fluoro-5-isobutoxy-phenyl)-2-(3-methyl-1-piperidyl)pyridine-3-carboxamide]: “+++ (“+++” means <3 uM)”; `CC(C)Oc1ccc(-c2ccc(C(=O)NS(=O)(=O)c3cccc(N)n3)c(N3CC4CCC3C4)n2)cn1` (stereo not shown) [Compound 521, N-[(6-amino-2-pyridyl)sulfonyl]-2-(3-azabicyclo[2.2.1]heptan-3-yl)-6-(6-isopropoxy-3-pyridyl)pyridine-3-carboxamide]: “++ (“++” means between 3 uM and 10 uM)”.
